From US11833144B2, “Treating autoimmune disease” (Mayo Foundation for Medical Education and Research, priority 2020, dated 2023)

Legend:
murine B cells = experiment: Murine B cell proliferation (CellTrace Violet, cell number) and class switch to IgG1 in vitro; type: cell-based, mouse; conditions: for proliferation of mouse B cells (CTV dilution) / B cell proliferation, exogenous fatty acid alone / IgG1 class switch, exogenous fatty acid alone: LPS/IL-4 activated; for proliferation of mouse B cells (CTV dilution): SCD inhibitor alone; for rescue of proliferation and IgG1 class switch upon SSI-4 treatment: SSI-4 with exogenous fatty acid; for B cell proliferation, exogenous fatty acid alone / IgG1 class switch, exogenous fatty acid alone: fatty acid-BSA conjugate, no inhibitor
Description: Mouse B cells were isolated from pooled single cell suspensions of spleen and peripheral lymph nodes using CD19 Microbeads (Miltenyi) or Mouse B cell Isolation Kit (Stemcell Technologies). B cells were stimulated with LPS (10 μg/mL; Sigma-Aldrich) and recombinant IL-4 cytokine (10 ng/mL; Tonbo Bioscience) with or without SCD inhibitor SSI-4, and proliferation was measured by dilution of CellTrace Violet proliferation dye (Thermo Fisher Scientific). B cells were also stimulated with anti-IgM (10 μg/mL; Jackson ImmunoResearch), anti-CD40 (10 μg/mL; BioXcell) and IL-4 (10 ng/mL; Tonbo Bioscience), or TLR ligand CpG (2.5 μM; IDT), recombinant IL-4 and IL-5 (10 ng/mL; Tonbo Bioscience) cytokines. To test the function of monounsaturated and saturated fatty acids, B cells were activated in presence of exogenous fatty acid-BSA conjugate. Palmitoleic acid (NU-CHEK PREP, INC), palmitic acid (NU-CHEK PREP, INC), stearic acid (NU-CHEK PREP, INC) were conjugated with fatty acid free BSA (Sigma-Aldrich) as described elsewhere (Wang et al., Immunity 35:871-882 (2011)). Human B cells were activated with CpG OND2006 (2.5 μM; IDT), recombinant human cytokine IL-10 ([…]; Peprotech), IL-15 (10 ng/mL; Peprotech), IL-4 (10 ng/mL; Biolegend), IL-2 (10 unit/mL) and anti-human CD40 (1 μg/mL; BioXcell). Human B cell proliferation was measured by ^3[H]-thymidine incorporation (1 μCi/mL) (American Radiolabeled Chemicals). For analysis of surface markers, cells were stained in PBS containing 1% (w/v) bovine serum albumin on ice for 30 minutes, with anti-IgG1 (RMG1-1, Biolegend), anti-CD19 (ID3, Biolegend) anti-B220 (RA3-6B2, Biolegend), anti-CD4 (GK1.5, Biolegend), anti-CD8 (53-6.7, Biolegend), anti-CD25 (PC16, Biolegend), anti-GL7 (GL-7, Biolegend), anti-CD95 (Jo2, BD Biosciences), anti-CD138 (281-2, Biolegend), anti-IgD (11-26c.2a, Biolegend), anti-PD-1 (J43, ThermoFisher), anti-IgM (II/41, ThermoFisher). Antigen specific GC response was detected with tetramer NP-phycoerythrin conjugated with PE (Biosearch Technologies). CXCR5 was stained with biotinylated anti-CXCR5 (2G8) followed by staining with streptavidin-conjugated PE (both from BD Biosciences). Cell viability was assessed using the Fixable Dye Ghost 510 (Tonbo Bioscience) or Annexin V cell apoptosis kit with 7-AAD (ThermoFisher) following the manufacturer's protocol. Phosflow staining for phospho-S6 (S235/236) was performed using Phosflow Fix/Perm kit (BD Biosciences). Mitochondrial potential was measured by staining with 20 nM TMRM (ThermoFisher) following manufacturer's instructions. Flow cytometry was performed on the LSR II, LSR Fortessa (BD Biosciences) or Attune NxT (ThermoFisher) cytometers, and analysis was performed using FlowJo software (Tree Star).

activated human B cells = experiment: Seahorse OCR / ECAR in activated human B cells; type: cell-based; conditions: exogenous fatty acid, 72 hours
Description: (§1) The bioenergetic activities of the OCR and ECAR were measured using a Seahorse XFe96 Extracellular Flux Analyzed following established protocols (Agilent). Briefly, B cells were seeded at 200,000 cells/well on Cell-Tak (Corning) coated XFe96 plate with fresh XF media (Seahorse XF RPMI medium containing 10 mM glucose, 2 mM L-glutamine, and 1 mM sodium pyruvate, PH 7.4; all reagents from Agilent). OCR was measured in the presence of Oligomycin (1.5 μM; Sigma-Aldrich), FCCP (1.5 μM; Sigma-Aldrich), and Rotenone (1 μM; Sigma-Aldrich)/Antimycin A (1 μM; Sigma-Aldrich) in Mito Stress assay. For ECAR measurement, B cells were seeded in XFe96 plate with fresh Seahorse XF RPMI medium with 2 mM L-glutamine (PH 7.4), and treated with glucose (10 mM; Agilent), Oligomycin (1.5 and 2-DG (50 mM; Sigma-Aldrich) orderly in Glycolysis Stress assay.

activated murine B cells = experiment: Seahorse OCR / ECAR in activated murine B cells; type: cell-based, mouse; conditions: exogenous fatty acid, 48 h
Description: as §1

Cn1cnc(N)c2ncnc1-2 [3-MA, 3-methyladenine, reference compound]
rescue of B cell proliferation and class switch to IgG1 in the presence of SSI-4 (murine B cells; 3-MA 1 mM, wortmannin 1 μM): successfully rescued

CNC(=O)c1cccc(NC(=O)N2CCC(Oc3ccccc3Cl)CC2)c1 [A939572, reference compound]
proliferation of mouse B cells (CTV dilution) (murine B cells): capable of inhibiting B cell proliferation

Cc1nnc(-c2ccc(N3CCC(Oc4ccccc4C(F)(F)F)CC3)nn2)s1 [MF438, reference compound]
proliferation of mouse B cells (CTV dilution) (murine B cells): capable of inhibiting B cell proliferation

CCCCCCCCCCCCCCCC(=O)O [PA, palmitic acid]
rescue of proliferation and IgG1 class switch upon SSI-4 treatment (murine B cells; LPS/IL-4): no rescue effects | B cell proliferation, exogenous fatty acid alone (murine B cells): unable to promote | IgG1 class switch, exogenous fatty acid alone (murine B cells): unable to promote

CCCCCC/C=C\CCCCCCCC(=O)O [PO, palmitoleic acid]
respiration (OCR) in activated human B cells (activated human B cells): did enhance OCR | rescue of proliferation and IgG1 class switch in SCD1/2 deficient B cells (murine B cells; B cells from Scd1 and Scd2 deficient mice, LPS/IL-4): partial rescue effect | rescue of proliferation and IgG1 class switch upon SSI-4 treatment (murine B cells; LPS/IL-4): substantial, but incomplete, rescue effects | IgG1 class switch, exogenous fatty acid alone (murine B cells): did not improve class switch | OCR upon LPS/IL-4 stimulation in mouse B cells (activated murine B cells): did enhance OCR | B cell respiration (OCR) (activated murine B cells; CpG/IL-4/IL-5 (PO: CpG and anti-IgM/anti-CD40) stimulation): did not promote respiration

CCCCCCCCCCCCCCCCCC(=O)O [SA, stearic acid]
rescue of proliferation and IgG1 class switch upon SSI-4 treatment (murine B cells; LPS/IL-4): no rescue effects | B cell proliferation, exogenous fatty acid alone (murine B cells): unable to promote | IgG1 class switch, exogenous fatty acid alone (murine B cells): unable to promote

CCOC(=O)[C@@]1(CCCCCCOc2ccc(Cl)cc2)CO1 [etomoxir, reference compound]
effect of OA treatment on class switch in presence of etomoxir (murine B cells; OA plus etomoxir 40 μM, 72 hours): negated the effects of OA treatment | B cell class switch to IgG1 (murine B cells; etomoxir 40 μM, LPS/IL-4, 72 hours): reduced B cell class switch
